# Data: publication PMC11045757, “Group 3 medulloblastoma transcriptional networks collapse under domain specific EP300/CBP inhibition” (Nature Communications, 2024)
# Tested on: 460 barcoded cancer cell lines
# Test: PRISM pooled barcoded cancer cell line growth screen, 10-point dose-response, 5 days, AUC
# Format: cell-based
# Parameters: scale not given here
# Excerpt: Several small molecule inhibitors of distinct protein domains of EP300/CBP are available, though the majority target the histone acetyltransferase domain (HAT) or bromodomain (BRD)[5],[10],[21],[22]. […] We used these tools to investigate the relative contribution of the EP300/CBP BRD or HAT domain to tumor cell growth (Fig. 1a). To do so, we performed 10-point, dose-response growth assays using mixed pools of 460 barcoded cancer cell lines, over five days of treatment in vitro[33],[34]. Growth was measured using an area-under-the-curve (AUC) approach (Supplementary Table 1, Supplementary Fig. 1a). […] Given potential differences in compound penetration and solubility, and to compare the relative cell line and tumor-specific effects of these two compounds in assays performed non-simultaneously, we performed a median normalization of each dataset (Supplementary Table 2).
smiles,measurement,setting,value
CNC(=O)Nc1ccc2c(c1)CCC21OC(=O)N(CC(=O)N(Cc2ccc(F)cc2)C(C)C(F)(F)F)C1=O (centres unmarked) [Compound A485],AUC,"22RV1, Prostate Cancer",0.5834
same,AUC,"42MGBA, Glioma",0.8468
same,AUC,"143B, Osteosarcoma",1
same,AUC,"639V, Bladder Cancer",0.8274
same,AUC,"647V, Bladder Cancer",0.6672
same,AUC,"697, B-cell Leukemia",0.5617
same,AUC,"769P, Kidney Cancer",0.6332
same,AUC,"5637, Bladder Cancer",0.8843
same,AUC,"8305C, Thyroid Cancer",0.7544
same,AUC,"A101D, Melanoma",0.9258
same,AUC,"A204, Rhabdoid",0.6513
same,AUC,"A253, Head and Neck Cancer",0.8228
same,AUC,"A375, Melanoma",0.749
same,AUC,"A427, Lung Cancer",0.6968
same,AUC,"A673, Ewing Sarcoma",1
same,AUC,"A1207, Glioblastoma",0.7712
same,AUC,"ACHN, Kidney Cancer",0.5417
same,AUC,"AGS, Gastric Cancer",0.7849
same,AUC,"AM38, Glioblastoma",1
same,AUC,"AN3CA, Endometrial/Uterine Cancer",0.8692
same,AUC,"AU565, Breast Cancer",0.7944
same,AUC,"BDCM, AML",0.9026
same,AUC,"BEN, Lung Cancer",0.8869
same,AUC,"BFTC905, Bladder Cancer",0.6715
same,AUC,"BHT101, Thyroid Cancer",0.6133
same,AUC,"BICR16, Head and Neck Cancer",0.6804
same,AUC,"BICR18, Head and Neck Cancer",1
same,AUC,"BICR22, Head and Neck Cancer",0.7556
same,AUC,"BICR31, Head and Neck Cancer",0.7077
same,AUC,"BICR56, Head and Neck Cancer",0.6769
same,AUC,"BT16, Rhabdoid",1
same,AUC,"BT474, Breast Cancer",0.9498
same,AUC,"C32, Melanoma",0.9339
same,AUC,"C8166, Lymphoma",0.6916
same,AUC,"CADOES1, Ewing Sarcoma",0.6865
same,AUC,"CAKI1, Kidney Cancer",0.6849
same,AUC,"CAL27, Head and Neck Cancer",0.7545
same,AUC,"CAL54, Kidney Cancer",0.4813
same,AUC,"CAL62, Thyroid Cancer",0.8629
same,AUC,"CAL78, Chondrosarcoma",0.8774
same,AUC,"CAL120, Breast Cancer",0.8951
same,AUC,"CAOV3, Ovarian Cancer",0.8124
same,AUC,"CBAGPN, Ewing Sarcoma",0.8343
same,AUC,"CCK81, Colon/Colorectal Cancer",0.7195
same,AUC,"CHAGOK1, Lung Cancer",0.9372
same,AUC,"CHL1, Melanoma",0.6205
same,AUC,"CHLA06ATRT, Rhabdoid",1
same,AUC,"CHLA10, Ewing Sarcoma",0.7781
same,AUC,"CHLA15, Neuroblastoma",0.7188
same,AUC,"CHLA57, Ewing Sarcoma",0.9584
same,AUC,"CHP212, Neuroblastoma",0.8072
same,AUC,"CI1, B-cell Lymphoma",0.7779
same,AUC,"CJM, Melanoma",0.6266
same,AUC,"CL11, Colon/Colorectal Cancer",0.6639
same,AUC,"CL34, Colon/Colorectal Cancer",0.6654
same,AUC,"CMLT1, CML",0.6607
same,AUC,"COGAR359, Rhabdoid",1
same,AUC,"COGE352, Ewing Sarcoma",1
same,AUC,"COLO320, Colon/Colorectal Cancer",1
same,AUC,"COLO678, Colon/Colorectal Cancer",0.7938
same,AUC,"COLO783, Melanoma",0.9045
same,AUC,"COLO792, Melanoma",0.7929
same,AUC,"CORL23, Lung Cancer",0.831
same,AUC,"CORL105, Lung Cancer",0.7616
same,AUC,"COV318, Ovarian Cancer",0.7366
same,AUC,"COV434, Ovarian Cancer",0.6392
same,AUC,"COV644, Ovarian Cancer",0.7528
same,AUC,"CW2, Colon/Colorectal Cancer",0.9324
same,AUC,"CW9019, Rhabdomyosarcoma",0.6452
same,AUC,"DAOY, Medulloblastoma",0.7773
same,AUC,"DEL, Lymphoma",0.7007
same,AUC,"DETROIT562, Head and Neck Cancer",0.6189
same,AUC,"DKMG, Glioblastoma",0.8817
same,AUC,"DL, Rhabdoid",0.6996
same,AUC,"DMS53, Lung Cancer",0.6382
same,AUC,"DMS273, Lung Cancer",0.7762
same,AUC,"DND41, T-acute leukemia",0.7502
same,AUC,"DU145, Prostate Cancer",0.8463
same,AUC,"DU4475, Breast Cancer",0.4233
same,AUC,"DV90, Lung Cancer",0.6128
same,AUC,"EB1, Lymphoma",1
same,AUC,"EBC1, Lung Cancer",0.8735
same,AUC,"ECC10, Gastric Cancer",0.8444
same,AUC,"ECGI10, Esophageal Cancer",0.8435
same,AUC,"EFE184, Endometrial/Uterine Cancer",1
same,AUC,"EFM19, Breast Cancer",0.5992
same,AUC,"EFO21, Ovarian Cancer",0.9024
same,AUC,"EM2, CML",0.902
same,AUC,"EN, Endometrial/Uterine Cancer",0.9736
same,AUC,"ES2, Ovarian Cancer",0.7477
same,AUC,"ESS1, Endometrial/Uterine Cancer",0.9044
same,AUC,"EW8, Ewing Sarcoma",0.7371
same,AUC,"EWS502, Ewing Sarcoma",0.6563
same,AUC,"FADU, Head and Neck Cancer",0.9573
same,AUC,"FTC133, Thyroid Cancer",0.8254
same,AUC,"FTC238, Thyroid Cancer",0.7484
same,AUC,"G292CLONEA141B1, Osteosarcoma",1
same,AUC,"G361, Melanoma",0.6803
same,AUC,"G401, Rhabdoid",1
same,AUC,"G402, Rhabdoid",0.9975
same,AUC,"GB1, Glioblastoma",0.7582
same,AUC,"GCT, Pleomorphic Sarcoma",0.8933
same,AUC,"GI1, Glioblastoma",0.757
same,AUC,"GOS3, Glioblastoma",0.9534
same,AUC,"GP2D, Colon/Colorectal Cancer",0.7575
same,AUC,"GRANTA519, Lymphoma",0.8493
same,AUC,"GSS, Gastric Cancer",0.6579
same,AUC,"HARA, Lung Cancer",0.7108
same,AUC,"HCC33, Lung Cancer",0.908
same,AUC,"HCC38, Breast Cancer",0.7435
same,AUC,"HCC44, Lung Cancer",0.6558
same,AUC,"HCC56, Colon/Colorectal Cancer",0.6212
same,AUC,"HCC78, Lung Cancer",0.7931
same,AUC,"HCC95, Lung Cancer",0.8823
same,AUC,"HCC515, Lung Cancer",0.6901
same,AUC,"HCC1419, Breast Cancer",0.6161
same,AUC,"HCC1428, Breast Cancer",0.6381
same,AUC,"HCC1438, Lung Cancer",0.9014
same,AUC,"HCC1806, Breast Cancer",0.8548
same,AUC,"HCC1937, Breast Cancer",0.6971
same,AUC,"HCC2108, Lung Cancer",1
same,AUC,"HCC4006, Lung Cancer",0.7024
same,AUC,"HCT116, Colon/Colorectal Cancer",0.9205
same,AUC,"HDMYZ, Lymphoma",1
same,AUC,"HDQP1, Breast Cancer",0.7294
same,AUC,"HEC1B, Endometrial/Uterine Cancer",0.8662
same,AUC,"HEC6, Endometrial/Uterine Cancer",0.9741
same,AUC,"HEC50B, Endometrial/Uterine Cancer",1
same,AUC,"HEL9217, AML",0.6119
same,AUC,"HEL, AML",0.5914
same,AUC,"HEP3B217, Liver Cancer",0.7234
same,AUC,"HEPG2, Liver Cancer",0.8554
same,AUC,"HEYA8, Ovarian Cancer",0.9784
same,AUC,"HGC27, Gastric Cancer",0.9226
same,AUC,"HH, Lymphoma",0.7764
same,AUC,"HOS, Osteosarcoma",0.9517
same,AUC,"HPBALL, T-acute leukemia",0.8767
same,AUC,"HS294T, Melanoma",0.8326
same,AUC,"HS766T, Pancreatic Cancer",0.7648
same,AUC,"HSC2, Head and Neck Cancer",0.6896
same,AUC,"HSC3, Head and Neck Cancer",0.8176
same,AUC,"HT29, Colon/Colorectal Cancer",0.7629
same,AUC,"HT115, Colon/Colorectal Cancer",1
same,AUC,"HT144, Melanoma",0.8574
same,AUC,"HT1197, Bladder Cancer",0.9829
same,AUC,"HT, B-cell Lymphoma",0.6247
same,AUC,"HUCCT1, Bile Duct Cancer",0.8158
same,AUC,"HUG1N, Gastric Cancer",0.7448
same,AUC,"HUH1, Liver Cancer",0.7158
same,AUC,"HUH7, Liver Cancer",1
same,AUC,"HUH28, Bile Duct Cancer",0.821
same,AUC,"HUPT3, Pancreatic Cancer",0.6895
same,AUC,"HUPT4, Pancreatic Cancer",0.6862
same,AUC,"HUT78, Lymphoma",0.9441
same,AUC,"IALM, Lung Cancer",0.6559
same,AUC,"IGR37, Melanoma",0.6843
same,AUC,"IGROV1, Ovarian Cancer",0.8359
same,AUC,"IM95, Gastric Cancer",0.7117
same,AUC,"IPC298, Melanoma",0.8033
same,AUC,"ISHIKAWAHERAKLIO02ER, Endometrial/Uterine Cancer",0.9178
same,AUC,"ISTMES1, Lung Cancer",0.7574
same,AUC,"J82, Bladder Cancer",0.8707
same,AUC,"JEKO1, Lymphoma",0.7073
same,AUC,"JHH1, Liver Cancer",0.7161
same,AUC,"JHH4, Liver Cancer",0.849
same,AUC,"JHH5, Liver Cancer",0.5701
same,AUC,"JHH7, Liver Cancer",0.6779
same,AUC,"JHOC5, Ovarian Cancer",0.8969
same,AUC,"JHUEM7, Endometrial/Uterine Cancer",1
same,AUC,"JVM3, B-cell Leukemia",0.6743
same,AUC,"K029AX, Melanoma",0.7933
same,AUC,"KALS1, Glioblastoma",0.6866
same,AUC,"KARPAS620, Myeloma",0.9002
same,AUC,"KATOIII, Gastric Cancer",0.6951
same,AUC,"KCL22, CML",0.6275
same,AUC,"KD, Rhabdoid",0.6425
same,AUC,"KE37, T-acute leukemia",0.6716
same,AUC,"KE39, Gastric Cancer",0.7203
same,AUC,"KELLY, Neuroblastoma",0.5242
same,AUC,"KMBC2, Bladder Cancer",0.7261
same,AUC,"KMS11, Myeloma",0.7944
same,AUC,"KMS12BM, Myeloma",0.9973
same,AUC,"KMS18, Myeloma",0.7657
same,AUC,"KMS21BM, Myeloma",0.9338
same,AUC,"KMS28BM, Myeloma",0.817
same,AUC,"KMS34, Myeloma",0.8682
same,AUC,"KNS42, Glioblastoma",0.8304
same,AUC,"KNS60, Glioblastoma",0.7072
same,AUC,"KNS62, Lung Cancer",0.8264
same,AUC,"KP3, Pancreatic Cancer",0.9118
same,AUC,"KPNYN, Neuroblastoma",0.9338
same,AUC,"KS1, Glioma",0.6653
same,AUC,"KU1919, Bladder Cancer",0.6431
same,AUC,"KYM1, Rhabdoid",0.5622
same,AUC,"KYSE30, Esophageal Cancer",0.6256
same,AUC,"KYSE150, Esophageal Cancer",0.8681
same,AUC,"KYSE410, Esophageal Cancer",0.9564
same,AUC,"KYSE510, Esophageal Cancer",0.7247
same,AUC,"KYSE520, Esophageal Cancer",0.7055
same,AUC,"LAMA84, CML",0.6928
same,AUC,"LC1SQSF, Lung Cancer",0.7027
same,AUC,"LCLC103H, Lung Cancer",0.9264
same,AUC,"LI7, Liver Cancer",0.7203
same,AUC,"LK2, Lung Cancer",0.847
same,AUC,"LMSU, Gastric Cancer",0.7223
same,AUC,"LN18, Glioblastoma",0.7097
same,AUC,"LNCAPCLONEFGC, Prostate Cancer",0.6119
same,AUC,"LOUNH91, Lung Cancer",0.9465
same,AUC,"LOVO, Colon/Colorectal Cancer",0.7392
same,AUC,"LOXIMVI, Melanoma",0.8926
same,AUC,"LS180, Colon/Colorectal Cancer",0.7453
same,AUC,"LS411N, Colon/Colorectal Cancer",0.8492
same,AUC,"LS1034, Colon/Colorectal Cancer",0.4819
same,AUC,"LUDLU1, Lung Cancer",0.9399
same,AUC,"LXF289, Lung Cancer",0.6887
same,AUC,"M059K, Glioblastoma",0.8677
same,AUC,"MALME3M, Melanoma",0.6048
same,AUC,"MC116, B-cell Lymphoma",0.8821
same,AUC,"MCAS, Ovarian Cancer",0.7202
same,AUC,"MCF7, Breast Cancer",0.7287
same,AUC,"MDAMB175VII, Breast Cancer",0.9247
same,AUC,"MDAMB231, Breast Cancer",0.7703
same,AUC,"MDAMB361, Breast Cancer",0.7016
same,AUC,"MDAMB436, Breast Cancer",0.9544
same,AUC,"MDAMB453, Breast Cancer",0.5182
same,AUC,"MDAMB468, Breast Cancer",1
same,AUC,"MDST8, Colon/Colorectal Cancer",0.8223
same,AUC,"MELHO, Melanoma",0.7944
same,AUC,"MESSA, Uterine Sarcoma",0.7132
same,AUC,"MFE280, Endometrial/Uterine Cancer",0.7775
